The values that follow come from the supplement of paper PMC10307832.

One test deals with NCI-H358. Briefly: relative viability (nuclei count vs DMSO), 5 days (fraction); higher = more cells survive. To be noted: first compound 2 µM. An outline of the steps: (§1)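 Dosing by pin tool came one day after lung cancer cell lines were seeded in 1536-well plates, using either one drug or a fixed anchor-drug dose plus five library-drug doses (not always all listed) in √10 steps. After 5 days, nuclei were counted on 4× images. Relative viability is treated-well nuclei count divided by vehicle-well nuclei count, and values are medians of duplicate plates.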
The molecule `COCC1(CO)C(=O)C2CCN1CC2` (stereo not drawn) [PRIMA-1MET] + Nc1ncn([C@H]2C[C@H](O)[C@@H](CO)O2)c(=O)n1 [Decitabine] (partner 2 µM) returned a relative viability of 0.215.

Take `COCC1(CO)C(=O)C2CCN1CC2` (stereo not drawn) [PRIMA-1MET] + O=C(c1cc(Cc2n[nH]c(=O)c3ccccc23)ccc1F)N1CCN(C(=O)C2CC2)CC1 [Olaparib] (partner 8 µM): the relative viability is 0.601.

The same test, now with this note: first compound 6.325 µM.
`COCC1(CO)C(=O)C2CCN1CC2` (stereo not drawn) [PRIMA-1MET] + N=C(N)NC(=N)NCCc1ccccc1 [Phenformin] (partner 250 µM) registered a relative viability of 0.279.

For the molecule `COCC1(CO)C(=O)C2CCN1CC2` (stereo not drawn) [PRIMA-1MET] + Nc1nc2[nH]cc(CCc3ccc(C(=O)N[C@@H](CCC(=O)O)C(=O)O)cc3)c2c(=O)[nH]1 [Pemetrexed] (partner 0.2 µM), the relative viability worked out at 0.164.

For `COCC1(CO)C(=O)C2CCN1CC2` (stereo not drawn) [PRIMA-1MET] + CC(=O)Nc1cccc(-n2c(=O)n(C3CC3)c(=O)c3c(Nc4ccc(I)cc4F)n(C)c(=O)c(C)c32)c1 [Trametinib] (partner 0.02 µM), the relative viability was 0.108.

For the molecule `COCC1(CO)C(=O)C2CCN1CC2` (stereo not drawn) [PRIMA-1MET] + Nc1ncn([C@H]2C[C@H](O)[C@@H](CO)O2)c(=O)n1 [Decitabine] (partner 2 µM), the relative viability stood at 0.207.

Consider `COCC1(CO)C(=O)C2CCN1CC2` (stereo not drawn) [PRIMA-1MET] + O=C(c1cc(Cc2n[nH]c(=O)c3ccccc23)ccc1F)N1CCN(C(=O)C2CC2)CC1 [Olaparib] (partner 8 µM), for which the relative viability is 0.635.

Staying with this test, now noted: first compound 20 µM.
`COCC1(CO)C(=O)C2CCN1CC2` (stereo not drawn) [PRIMA-1MET] + N=C(N)NC(=N)NCCc1ccccc1 [Phenformin] (partner 250 µM) registered a relative viability of 0.0042.

As to `COCC1(CO)C(=O)C2CCN1CC2` (stereo not drawn) [PRIMA-1MET] + Nc1nc2[nH]cc(CCc3ccc(C(=O)N[C@@H](CCC(=O)O)C(=O)O)cc3)c2c(=O)[nH]1 [Pemetrexed] (partner 0.2 µM), the relative viability came out at 0.198.

For the molecule `COCC1(CO)C(=O)C2CCN1CC2` (stereo not drawn) [PRIMA-1MET] + CC(=O)Nc1cccc(-n2c(=O)n(C3CC3)c(=O)c3c(Nc4ccc(I)cc4F)n(C)c(=O)c(C)c32)c1 [Trametinib] (partner 0.02 µM), the relative viability came to 0.0807.

`COCC1(CO)C(=O)C2CCN1CC2` (stereo not drawn) [PRIMA-1MET] + Nc1ncn([C@H]2C[C@H](O)[C@@H](CO)O2)c(=O)n1 [Decitabine] (partner 2 µM) returned a relative viability of 0.183.

`COCC1(CO)C(=O)C2CCN1CC2` (stereo not drawn) [PRIMA-1MET] + O=C(c1cc(Cc2n[nH]c(=O)c3ccccc23)ccc1F)N1CCN(C(=O)C2CC2)CC1 [Olaparib] (partner 8 µM) showed a relative viability of 0.553.

Another test deals with NCI-H3122. Described as above. To be noted: first compound 0.2 µM. The essentials:
as §1
`COCC1(CO)C(=O)C2CCN1CC2` (stereo not drawn) [PRIMA-1MET] + N=C(N)NC(=N)NCCc1ccccc1 [Phenformin] (partner 250 µM): the relative viability is 0.367.

In turn, `COCC1(CO)C(=O)C2CCN1CC2` (stereo not drawn) [PRIMA-1MET] + Nc1nc2[nH]cc(CCc3ccc(C(=O)N[C@@H](CCC(=O)O)C(=O)O)cc3)c2c(=O)[nH]1 [Pemetrexed] (partner 0.2 µM) displayed a relative viability of 0.18.

`COCC1(CO)C(=O)C2CCN1CC2` (stereo not drawn) [PRIMA-1MET] + CC(=O)Nc1cccc(-n2c(=O)n(C3CC3)c(=O)c3c(Nc4ccc(I)cc4F)n(C)c(=O)c(C)c32)c1 [Trametinib] (partner 0.02 µM) showed a relative viability of 0.148.

Regarding `COCC1(CO)C(=O)C2CCN1CC2` (stereo not drawn) [PRIMA-1MET] + Nc1ncn([C@H]2C[C@H](O)[C@@H](CO)O2)c(=O)n1 [Decitabine] (partner 2 µM), the relative viability is 0.336.

In turn, `COCC1(CO)C(=O)C2CCN1CC2` (stereo not drawn) [PRIMA-1MET] + O=C(c1cc(Cc2n[nH]c(=O)c3ccccc23)ccc1F)N1CCN(C(=O)C2CC2)CC1 [Olaparib] (partner 8 µM) yielded a relative viability of 0.661.

The test is the same for the next values; noted with them: first compound 0.6325 µM.
As to `COCC1(CO)C(=O)C2CCN1CC2` (stereo not drawn) [PRIMA-1MET] + N=C(N)NC(=N)NCCc1ccccc1 [Phenformin] (partner 250 µM), the relative viability came to 0.35.

Consider `COCC1(CO)C(=O)C2CCN1CC2` (stereo not drawn) [PRIMA-1MET] + Nc1nc2[nH]cc(CCc3ccc(C(=O)N[C@@H](CCC(=O)O)C(=O)O)cc3)c2c(=O)[nH]1 [Pemetrexed] (partner 0.2 µM), for which the relative viability worked out at 0.199.

Regarding `COCC1(CO)C(=O)C2CCN1CC2` (stereo not drawn) [PRIMA-1MET] + CC(=O)Nc1cccc(-n2c(=O)n(C3CC3)c(=O)c3c(Nc4ccc(I)cc4F)n(C)c(=O)c(C)c32)c1 [Trametinib] (partner 0.02 µM), the relative viability was 0.237.

`COCC1(CO)C(=O)C2CCN1CC2` (stereo not drawn) [PRIMA-1MET] + Nc1ncn([C@H]2C[C@H](O)[C@@H](CO)O2)c(=O)n1 [Decitabine] (partner 2 µM): the relative viability is 0.288.

In turn, `COCC1(CO)C(=O)C2CCN1CC2` (stereo not drawn) [PRIMA-1MET] + O=C(c1cc(Cc2n[nH]c(=O)c3ccccc23)ccc1F)N1CCN(C(=O)C2CC2)CC1 [Olaparib] (partner 8 µM) came in with a relative viability of 0.55.

Staying with this test, now noted: first compound 2 µM.
In turn, `COCC1(CO)C(=O)C2CCN1CC2` (stereo not drawn) [PRIMA-1MET] + Nc1nc2[nH]cc(CCc3ccc(C(=O)N[C@@H](CCC(=O)O)C(=O)O)cc3)c2c(=O)[nH]1 [Pemetrexed] (partner 0.2 µM) had a relative viability of 0.206.

As to `COCC1(CO)C(=O)C2CCN1CC2` (stereo not drawn) [PRIMA-1MET] + CC(=O)Nc1cccc(-n2c(=O)n(C3CC3)c(=O)c3c(Nc4ccc(I)cc4F)n(C)c(=O)c(C)c32)c1 [Trametinib] (partner 0.02 µM), the relative viability was determined as 0.24.

For `COCC1(CO)C(=O)C2CCN1CC2` (stereo not drawn) [PRIMA-1MET] + Nc1ncn([C@H]2C[C@H](O)[C@@H](CO)O2)c(=O)n1 [Decitabine] (partner 2 µM), the relative viability was found to be 0.425.

`COCC1(CO)C(=O)C2CCN1CC2` (stereo not drawn) [PRIMA-1MET] + O=C(c1cc(Cc2n[nH]c(=O)c3ccccc23)ccc1F)N1CCN(C(=O)C2CC2)CC1 [Olaparib] (partner 8 µM) came in with a relative viability of 0.614.

The same test, now with this note: first compound 6.325 µM.
The molecule `COCC1(CO)C(=O)C2CCN1CC2` (stereo not drawn) [PRIMA-1MET] + N=C(N)NC(=N)NCCc1ccccc1 [Phenformin] (partner 250 µM) had a relative viability of 0.392.

Take `COCC1(CO)C(=O)C2CCN1CC2` (stereo not drawn) [PRIMA-1MET] + Nc1nc2[nH]cc(CCc3ccc(C(=O)N[C@@H](CCC(=O)O)C(=O)O)cc3)c2c(=O)[nH]1 [Pemetrexed] (partner 0.2 µM): the relative viability was 0.192.

On to `COCC1(CO)C(=O)C2CCN1CC2` (stereo not drawn) [PRIMA-1MET] + CC(=O)Nc1cccc(-n2c(=O)n(C3CC3)c(=O)c3c(Nc4ccc(I)cc4F)n(C)c(=O)c(C)c32)c1 [Trametinib] (partner 0.02 µM), for which the relative viability is 0.17.

As for `COCC1(CO)C(=O)C2CCN1CC2` (stereo not drawn) [PRIMA-1MET] + Nc1ncn([C@H]2C[C@H](O)[C@@H](CO)O2)c(=O)n1 [Decitabine] (partner 2 µM), the relative viability is 0.367.

On to `COCC1(CO)C(=O)C2CCN1CC2` (stereo not drawn) [PRIMA-1MET] + O=C(c1cc(Cc2n[nH]c(=O)c3ccccc23)ccc1F)N1CCN(C(=O)C2CC2)CC1 [Olaparib] (partner 8 µM), for which the relative viability amounted to 0.698.

The test is the same for the next values; noted with them: first compound 20 µM.
Take `COCC1(CO)C(=O)C2CCN1CC2` (stereo not drawn) [PRIMA-1MET] + N=C(N)NC(=N)NCCc1ccccc1 [Phenformin] (partner 250 µM): the relative viability is 0.343.

On to `COCC1(CO)C(=O)C2CCN1CC2` (stereo not drawn) [PRIMA-1MET] + Nc1nc2[nH]cc(CCc3ccc(C(=O)N[C@@H](CCC(=O)O)C(=O)O)cc3)c2c(=O)[nH]1 [Pemetrexed] (partner 0.2 µM), for which the relative viability was 0.206.
